According to US12629355B2, “Drug inhibitor against migration and invasion of cancer cells and methods of treating against metastasis of cancer cells” (HOWARD UNIVERSITY, priority 2019, dated 2026):

What was measured:
Format in all cases: cell-based
U251 cells [1] = assay: Wound migration assay (FIG. 9); settings: TGF, 0 h and 14 h after wounding
From the text: During tumorigenesis, the epithelial-mesenchymal transition (EMT) plays a crucial role in migration and invasion of various cancers. EMT plays an essential role in tumor invasiveness and metastasis in cancer progression. Invasiveness (metastasis) of cancers is associated with a critical physiological process in which epithelial cells transition to mesenchymal transition or differentiation (EMT). Epithelial cells are not regarded as motile. However, in EMT, epithelial cells lose their epithelial characteristics, including their polarity (apical-basal polarity) and specialized cell-cell junctions, to acquire motility (migratory ability) behavior to become invasive mesenchymal cells, (e.g., Qu et al., Int. J. Clin. Exp. Med., 10 (6): 9019-9028 (2017); Xu et al., Cell Res. 19:156-172 (2009)). The motile mesenchymal cells can move (migrate) into surrounding tissue, even remote tissue. […] A wound was created by sliding a tip of a plastic pipette on the surface of almost 100 percent confluent cells and the size of the wound was measured at 0 h and after 14 h of wound creation. […]
In FIG. 10 and FIG. 11, U251 cells were plated in six-well plates and were allowed to reach about 90%-100% density. […] The size of wound was measured under a microscope at 0 and 14 h after wounding.

MCF-7 cells = assay: Filipodia/lamellipodia development of TGF-induced cells on Matrigel, Giemsa stain (FIG. 3, FIG. 5)
Method: About 1×10^5 Breast cancer cells (MCF-7) treated with DMSO or SD29-14 for 48 h were resuspended in serum free MEM media and were then plated on 1:6 diluted (with serum free media) matrigel (Basement membrane mimic) in the presence of Transforming Growth Factor (TGFbeta) which is a known inducer of EMT that lead to the migration-(Lamouille and Derynck (2009)), with DMSO or with SD29-14 and the cells were allowed to grow for 20 h on Matrigel. After incubation, media and matrigels were carefully removed and adherent cells were washed three times with 1×PBS; to visualize cells, cells were incubated with Giemsa Stain (Sigma-Aldrich) (1:20 with water) for 10 minutes, washed in water until no blue color rinsed out from the well images under a Zeiss Compound microscope.
(§1) Efficacy for inhibiting migration at a lower concentration of a representative compound was also investigated. Cancer cell lines were treated under conditions as used above for FIG. 2 and FIG. 3 but with both 10 μM and 100 μM SD29-14.
The experimental methods, except for the different cell line, are essentially same as stated above as to FIG. 4.

pY397-FAK [2] = assay: pY397-FAK expression, immunofluorescence (FIG. 14); settings: MCF7 cells, 96 h, 5 ng/ml TGF-beta
From the text: (§2) As to FIGS. 14 and 15, in order to evaluate the effect of a representative compound (SD 29-14) as a drug for inducing functional inactivation of RACK1 on the FAK phosphorylation, the drug was used in testing with breast cancer cells (MCF7, FIG. 14) and with glioblastoma cancer cells (U251, FIG. 15). In this immunofluorescence experiment, the pY397-FAK expressing cells were stained with FITC tagged secondary antibody (green) and RACK1 was stained with TRITC tagged secondary antibody (red). Here 5 ng/ml TGFbeta was used to induce cell migration. […] As discussed above, without the pY397-FAK present, the connection between the ECM and cell interiors will be disrupted which will inhibit the cell's potential to migrate by initiating the cell's adhesion to the ECM.
(§3) As to FIGS. 14 and 15, and the methods, the immunofluorescence experiments are essentially same as described with reference to FIG. 9 with a slight modification in the duration of the drug treatment. The cancer cells (MCF7 or U251) were incubated with a drug (SD 29-14) or with DMSO (left panel) for 96 h in the presence of 5 ng/ml TGF-beta. After indicated incubation period, the cells were fixed and stained with antibody as described for FIG. 9 methods.

U251 cells [3] = assay: Migration through Matrigel, cell shape differentiation (FIG. 16-19)
Method: Within 24 h of the placement of the cells on the matrigel, the cells were able to migrate through the matrigel and were captured on the glass coverslip beneath the matrigel layer.
The cells are labeled with an antibody (pY397-FAK) and detected with a rabbit-TRITC secondary antibody. The antibody staining allowed to visualize the cells clearly but the autofluorescence of the Matrigel made it hard to pinpoint the precise localization of the pY397-FAK protein.
As to FIG. 19, and related methods, freshly harvested 10^5 cells in MEM no serum media+/−drugs (500 μl) placed on coverslip covered with 200 μl of 1:12 matrigel diluted with MEM serum free media in a 24 well plate. After 24 h, the matrigel was carefully removed by tilting wells and drawing from the tilted side of the wells and washing thoroughly with PBS to remove the matrigel completely (all crumbs removed as their auto fluorescence makes background during imaging) and then were fixed 10 minutes with 4% paraformaldehyde. Washed 2× with PBS; use 5% Urea to treat the cells at 95 C for 10 minutes, wash 2×PBS; permeabilize with 0.5% saponin in PBS; block cells with 3% BSA in PBST for 30 min; Overnight Primary antibody (ThermoFisher Cat #70025-pFAK397 rabbit at 1:250) in 1% BSA in PBST at 4 C, secondary (Rabbit-TRITC) also 1% BSA in PBST for one hour (1:1000).

U251 cells [4] = assay: Filipodia/lamellipodia development of TGF-induced cells on Matrigel, Giemsa stain (FIG. 2, FIG. 4)
Method: After incubation, media and matrigels were carefully removed and adherent cells were washed three times with 1×PBS; to visualize cells, cells were incubated with Giemsa Stain (Sigma-Aldrich) (1:20 with water) for 10 minutes, washed in water until no blue color rinsed out from the well images under a Zeiss Compound microscope.
It is shown in the FIG. 2 and FIG. 3 that 100 uM of SD 29-14 is effective in inhibiting the migration potential of the two different representative cancer cell lines, which establishes this drug as a candidate anti-metastasis drug for treating against cancers where a role of RACK1 upregulation is or has been shown in the metastasis process. There are many reviews on the RACK1 protein the cancer cell migration (e.g., Li and Xie, 2015; Duff and Long, 2017, among others).
as §1

pY397-FAK [5] = assay: pY397-FAK expression, immunofluorescence (FIG. 15); settings: U251 cells, 96 h, 5 ng/ml TGF-beta
From the text: as §2, §3

Nn1c(S)nnc1-c1cc(Cl)cc(Cl)c1 [SD 29-14]
cell migration into wound (U251 cells [1]): the cells failed to migrate to cover the clear area
efficacy to inhibit filipodia and lamellipodia development (MCF-7 cells; 10 μM, 72 h grown (FIG. 5)): maintained
filipodia and lamellipodia development (MCF-7 cells; 100 uM, TGF-beta on Matrigel, 48 h treated then 20 h on Matrigel): the development of both filipodia and lamellipodia was inhibited
expression of pY397-FAK at the cell protrusions (pY397-FAK [2]): almost completely inhibited
filipodia, invadopodia, lamellipodia structures and cell-cell adhesion during invasion through matrigel (U251 cells [3]; 10 μM, 24 h (FIG. 17)): those structures where inhibited and the cells mostly maintained their cell-cell adhesion
filipodia, invadopodia, lamellipodia structures and cell-cell adhesion during invasion through matrigel (U251 cells [3]; 100 μM, 24 h (FIG. 18)): those structures where inhibited and the cells mostly maintained their cell-cell adhesion
efficacy to inhibit filipodia and lamellipodia development (U251 cells [4]; 10 μM, 72 h grown (FIG. 4)): maintained
filipodia and lamellipodia development (U251 cells [4]; 100 uM, TGF on Matrigel, 48 h treated then 20 h on Matrigel): inhibition of the filipodia and lamellipodia development
expression of pY397-FAK at the cell protrusions (pY397-FAK [5]): almost completely inhibited
